Experimental data from patent US8993626B2, “Methods of treatment using sterculic acid” (The United States of America, as represented by the …, priority 2010, dated 2015).
Like-named read-outs stand apart in the source and are kept apart here.

Assays:
HUVEC [1] = assay: HUVEC growth inhibition assay (crystal violet); type: cell-based; conditions: for IC50: Homo sapiens
Description: HUVEC (1.5×10^3) are plated in a 96-well plate in […] of EBM-2 (Clonetic #CC3162). After 24 h (day 0), the test compound (100 μL) is added to each well at 2× the desired concentration (5-7 concentration levels) in EBM-2 medium. On day 0, one plate is stained with 0.5% crystal violet in 20% methanol for 10 minutes, rinsed with water, and air-dried. The remaining plates are incubated for 72 h at 37° C. After 72 h, plates are stained with 0.5% crystal violet in 20% methanol, rinsed with water, and air-dried. The stain is eluted with 1:1 solution of ethanol:0.1M sodium citrate (including day 0 plate), and absorbance is measured at 540 nm with an ELISA reader (Dynatech Laboratories). Day 0 absorbance is subtracted from the 72 h plates and data is plotted as percentage of control proliferation (vehicle treated cells). IC50 (drug concentration causing 50% inhibition) is calculated from the plotted data.

[2] = test system: Breast Cancer, NCI/ADR-RES; assay: NCI in vitro anti-cancer cell line screen (SRB); conditions: Homo sapiens, 48 h
Description: (§3) The human tumor cell lines used in the cancer screen panel were grown in RPMI 1640 medium containing 5% FBS and 2 mM L-glutamine. The cells were inoculated into 96-well microtiter plates in 100 μl at plating density ranging from 5000 to 40,000 cell/well. […] Following drug addition, the plates were incubated for an additional 48 h. The assay was terminated by the addition of cold 10% TCA. The supernatant was discarded, and the plates were washed five times with water and air dried. Sulforhodamine B (SRB) solution (100 μl) at 0.4% (w/v) in 1% acetic acid was added to each well, and plates were incubated for 10 min at room temperature. After staining, unbound dye was removed by washing five times with 1% acetic acid and the plates were air dried. Bound stain was subsequently solubilized with 10 mM trizma base, and the absorbance was read on an automated plate reader at a wavelength of 515 nm.
(§4) A sulforhodamine B (SRB) end point was used to calculate the median growth inhibition (GI50). GI50 refers to the concentration at which the drug inhibits tumor cell growth by 50%.

Colon Cancer, SW-620 = assay: NCI in vitro anti-cancer cell line screen (SRB); conditions: Homo sapiens, SW-620, 48 h
Description: as §3, §4

ARPE-19 cells [3] = assay: ELISA of secreted VEGF, IL-6, IL-8 in conditioned medium; type: cell-based; conditions: 6 μM 7KCh alone or with 1 μM fatty acid, 48 hr
Description: (§1) FIGS. 16A-16E depict the secreted protein levels of (A) VEGF, (B) IL-6, and (C) IL-8 were measure by ELISA 48 hr after treatment with 6 μM 7KCh, 1 μM sterculic acid, 1 μM stearic acid, or the combinations of 7KCh with either sterculic acid or stearic acid. Error bars indicate the standard deviations. *p<0.05 comparing to 7KCh, n=3. Two-tailed Student's t-test. The expressions of GRP78 and CHOP were shown by immunoblots (D) 24 hr or (E) 48 hr after treatment with 8 μM 7KCh, 1 μM sterculic acid, 1 μM stearic acid, or the combinations of 7KCh with either sterculic acid or stearic acid.
(§2) ARPE-19 cells were seeded in 24-well plates with 1×10^5 cells per well and allowed to recover for 16-24 hr. Once confluency reached approximately 90%, the effect of the fatty acids against 7KCh-mediated cell death was examined 24 hr after incubation in serum-free medium with 12 μM 7KCh. Fatty acids were tested at 0.1, 0.5, 1, 5 and 10 μM concentrations. The effects of the fatty acids against 7KCh-mediated inflammation and ER stress were examined by incubating cells in 1 μM fatty acids with either 8 μM 7KCh (24 hr for quantitative real-time PCR (qRT-PCR), 24 and 48 hr for immunoblot), or 6 μM 7KCh for 48 hr (for ELISA). Three individual experiments were performed for each treatment with quadruplicate measurements performed for each experiment in 24-well plates.
The levels of secreted VEGF, IL-6, IL-8, and TNF-α in conditioned medium of ARPE-19 cell cultures were measured 48 hr after treatments of 6 μM 7KCh and 1 μM fatty acids using the Quantkine ELISA kits from R&D systems (Minneapolis, Minn.). The protein levels were measured in triplicates. The ELISA results were quantified using an Envision multilable plate reader (PerkinElmer, Covina, Calif.) and presented in percentage relative to the vehicle-only control.

HUVEC [4] = assay: Cord formation assay on Matrigel; type: cell-based; conditions: data not shown
Colon Cancer, HCC-2998 = assay: NCI in vitro anti-cancer cell line screen (SRB); conditions: Homo sapiens, HCC 2998, 48 h
Description: as §3, §4

[5] = test system: bFGF-induced angiogenesis; assay: Chick chorioallantonic membrane (CAM) assay; type: in vivo; conditions: for decrease in blood vessels induced by bFGF: bFGF 5 ng/ml, 72 h
Description: Results shown are reported as the reduction in angiogenic stimulation (vessels counted) compared to untreated controls. A, bFGF (5 ng/ml); B, bFGF (5 ng/ml)+5 μl DMSO; C, bFGF (5 ng/ml)+5 μl DMSO containing 1 μg/ml sterculic acid; D, bFGF (5 ng/ml)+5 μl DMSO containing 10 μg/ml sterculic acid.
Fertilized chick embryos, 9-day old, were maintained in a 48 place table top egg incubator at 37° C. in a specific humidity of 60%. After swabbing the egg shell with 70% alcohol, a small window was cut through the egg shell close to the inner shell surface where the prominent blood vessels are located using a hobby grinding wheel (Dremel Emerson Electric Co., Racine, Wis.). A filter disc saturated with bFGF (5 ng/ml) was placed on the CAM. Sterculic acid dissolved in dimethyl sulfoxide (DMSO) at various concentrations was added to the disc daily over 3-day period of incubation. The controls received the same amount of DMSO. After 72 h the disc and surrounding CAM were excised, inverted and examined under a high power dissecting microscope. The result was reported as reduction in angiogenic stimulation (vessels counted) compared to untreated controls.

Renal Cancer, RXF-393 = assay: NCI in vitro anti-cancer cell line screen (SRB); conditions: Homo sapiens, RXF 393, 48 h
Description: as §3, §4

ARPE19 cells = assay: Microelectronic cell sensor assay (RT-CES), 7KCh-induced cytotoxicity; conditions: 1 μM fatty acid + 15 μM 7KCh, serum free media
Description: 4×10^4 cells were seeded onto wells of 16× microtiter plates. […] Cell viability was determined as a cell index (CI) calculated from the impedance of each well automatically by the RT-CES system once per hr until the end of the experiment. The data was normalized at the point immediately prior to compound treatment.
RT-CES® System is a cell-based assay system that monitors cellular events by measuring the electronic impedance of sensor electrodes integrated on the bottom of microtiter E-Plates. The presence of the cells will lead to an increase in the electrode impedance. The more cells attached to the sensor, the higher the impedance that could be monitored with RT-CES.
1) Cells were cultivated in the ACEA's 16X E-plate device containing microelectrodes at the bottom of each well to measure contact area and electrical properties of adherent cells. […]
4) Cell growth was monitored periodically (every 1 hr) for indicated durations via calculation of a “cell index” (reflect to the surface area covered by the cells) in each well. […]
6) The sensor devices were put into the incubator again and the cells were continuously monitored cellular status changes.
7) Cell viability was determined as a cell index (CI) calculated from the impedance of each well automatically by the RT-CES system once per hr until the end of the experiment. […]

ARPE-19 cells [6] = assay: Immunoblots of CHOP and GRP78; type: cell-based; conditions: 1 μM + 8 μM 7KCh
Description: as §1, §2
Lysis of ARPE-19 cells was performed using MPER buffer solution (Thermo Fisher Scientific) containing Complete Protease Inhibitor Cocktail (Roche Diagnostics). A total of 10 μg protein samples of the cell lysate were separated by SDS-PAGE on 10% Bis-Tris gels (Invitrogen). The gels were blotted on to nitrocellulose membranes (Invitrogen). The proteins were probed with primary antibodies for CHOP (1:1000 dilution), GRP78 (1:1000), or GAPDH (1:2000) at 4° C. overnight. The membranes were then further incubated with anti-rabbit IgG, HRP-linked antibodies (1:2000 dilution) at room temperature for 1 hr. […]

SMILES: CCCCCCCCC1=C(CCCCCCCC(=O)O)C1 [sterculic acid, 8-(2-octacyclopropen-1-yl)octanoic acid]
- apoptosis induction (HUVEC [1]; HUVEC): no apoptosis
- IC50 (HUVEC [1]; HUVEC, 72 h, read-out: IC50 value of the anti-proliferative effect): ~11.7 µM
- IC50 (HUVEC [1]; HUVEC proliferation, read-out: IC50 (drug concentration causing 50% inhibition)): 18.6 µM
- GI50 [2]: 10 µM
- GI50 (Colon Cancer, SW-620): 1 µM
- secreted IL-6 protein expression (ARPE-19 cells [3]): 1.4 fold
- secreted IL-8 protein expression (ARPE-19 cells [3]): 1.1 fold
- secreted VEGF protein expression (ARPE-19 cells [3]): 1.1 fold
- viability of HUVEC at concentrations required to inhibit cord formation (HUVEC [4]): did not affect their viability
- GI50 (Colon Cancer, HCC-2998): 10 µM
- decrease in blood vessels induced by bFGF ([5]; 1 μg/ml sterculic acid in DMSO daily): Significant decrease
- decrease in blood vessels induced by bFGF ([5]; 10 μg/ml sterculic acid in DMSO daily): more than 3 fold
- value observed in the CAM assay ([5]; compared with the HUVEC IC50): 10 µM
- GI50 (Renal Cancer, RXF-393): 10 µM
- protection from 7KCh induced cytotoxicity (cell index) (ARPE19 cells): markedly protected
- effect on 7KCh-induced CHOP and GRP78 protein expression (ARPE-19 cells [6]; 24 hr): completely inhibited
- inhibitory effect on CHOP and GRP78 protein expression (ARPE-19 cells [6]; after 48 hr): seems to decrease
